17 compounds from US8772504B2, “Substituted benzoxazole, benzimidazole, oxazolopyridine and imidazopyridine derivatives as gamma secretase modulators” (Janssen Pharmaceuticals, Inc., priority 2009, dated 2014) can be followed below.

SMILES strings stand for the structures. Some results are limits rather than exact numbers.

In one experiment the test system is Aβ42. The experiment in a line: Screening for γ-secretase-modulating activity, Method 1: Aβ42 sandwich ELISA on SKNBE2 cell media. In kind it is cell-based. The following applies: SKNBE2 cells carrying APP 695 wild type. On the procedure:
(§1) Screening was carried out using SKNBE2 cells carrying the APP 695—wild type, grown in Dulbecco's Modified Eagle's Medium/Nutrient mixture F-12 (DMEM/NUT-mix F-12) (HAM) provided by Gibco (cat no. 31330-38) containing 5% Serum/Fe supplemented with 1% non-essential amino acids. Cells were grown to near confluency.
(§2) The screening was performed using the assay as described in Citron et al (1997) Nature Medicine 3: 67. Briefly, cells were plated in a 96-well plate at about 10^5 cells/ml one day prior to addition of compounds. Compounds were added to the cells in Ultraculture (Lonza, BE12-725F) supplemented with 1% glutamine (Invitrogen, 25030-024) for 18 hours. The media were assayed by two sandwich ELISAs, for Aβ42 and Aβtotal. Toxicity of the compounds was assayed by WST-1 cell proliferation reagent (Roche, 1 644 807) according to the manufacturer's protocol.
To quantify the amount of Aβ42 in the cell supernatant, commercially available Enzyme-Linked-Immunosorbent-Assay (ELISA) kits were used (Innotest® β-Amyloid(1-42), Innogenetics N.V., Ghent, Belgium). The Aβ42 ELISA was performed essentially according to the manufacturer's protocol. Briefly, the standards (dilutions of synthetic Aβ1-42) were prepared in polypropylene Eppendorf with final concentrations of 8000 down to 3.9 pg/ml (1/2 dilution step). Samples, standards and blanks (100 μl) were added to the anti-Aβ42-coated plate supplied with the kit (the capture antibody selectively recognizes the C-terminal end of the antigen). The plate was allowed to incubate 3 h at 25° C. in order to allow formation of the antibody-amyloid complex. Following this incubation and subsequent wash steps a selective anti-Aβ-antibody conjugate (biotinylated 3D6) was added and incubated for a minimum of 1 hour in order to allow formation of the antibody-Amyloid-antibody-complex. After incubation and appropriate wash steps, a Streptavidine-Peroxidase-Conjugate was added, followed 30 minutes later by an addition of 3,3′,5,5′-tetramethylbenzidine (TMB)/peroxide mixture, resulting in the conversion of the substrate into a coloured product. This reaction was stopped by the addition of sulfuric acid (0.9 N) and the colour intensity was measured by means of photometry with an ELISA-reader with a 450 nm filter.
(§3) To obtain the values reported in Table 3a, the sigmoidal dose response curves were analysed by computerised curve-fitting, with percent of inhibition plotted against compound concentration. A 4-parameter equation (model 205) in XLfit was used to determine the IC50. The top and the bottom of the curve were fixed to 100 and 0, respectively, and the hill slope was fixed to 1. The IC50 represents the concentration of a compound that is required for inhibiting a biological effect by 50% (Here, it is the concentration where Aβ peptide level is reduced by 50%).
(§4) To obtain the values reported in Table 3b, the data were calculated as percentage of the maximum amount of amyloid Beta 42 measured in the absence of the test compound. The sigmoidal dose response curves were analyzed using non-linear regression analysis with percentage of the control plotted against the log concentration of the compound. A 4-parameter equation was used to determine the IC50. The values reported in Table 3b are averaged IC50 values.

Another experiment relates to Aβtotal. Put plainly: Screening for γ-secretase-modulating activity, Method 1: Aβtotal sandwich ELISA on SKNBE2 cell media. In kind it is cell-based. The following applies: SKNBE2 cells carrying APP 695 wild type. On the procedure: as §1, §2
To quantify the amount of Aβtotal in the cell supernatant, samples and standards were added to a 6E10-coated plate. The plate was allowed to incubate overnight at 4° C. in order to allow formation of the antibody-amyloid complex. Following this incubation and subsequent wash steps a selective anti-Aβ-antibody conjugate (biotinylated 4G8) was added and incubated for a minimum of 1 hour in order to allow formation of the antibody-Amyloid-antibody-complex. After incubation and appropriate wash steps, a Streptavidine-Peroxidase-Conjugate was added, followed 30 minutes later by an addition of Quanta Blu fluorogenic peroxidase substrate according to the manufacturer's instructions (Pierce Corp., Rockford, Ill.).
as §3, §4

Where [1] appears, read: Table 3a, 18 hours, XLfit, top/bottom fixed to 100 and 0, hill slope 1.
Setting [2] is: Table 3b, non-linear regression of % of control, averaged IC50 values.
Setting [3] is: Homo sapiens, Table 3a, 18 hours, XLfit, top/bottom fixed to 100 and 0, hill slope 1.
The mark [4] stands for this setting: Homo sapiens, Table 3b, non-linear regression of % of control, averaged IC50 values.

Consider `COc1cc(Nc2cccc3oc(C4CCCC4)nc23)ccc1-n1cnc(C)c1` [Compound 37], for which the IC50 is 266 nM with Aβ42 (setting [1]), 275 nM in the experiment on Aβ42 (setting [2]), over 10000 nM with Aβtotal (setting [1]) and over 10000 nM with Aβtotal (setting [2]).

Consider `COc1cc(Nc2cccc3c2nc(-c2ccc(F)cc2)n3C)ccc1-n1cnc(CO)c1` [Compound 118], for which the IC50 with Aβ42 (setting [2]) is 69 nM; in the experiment on Aβtotal (setting [2]) it was over 3000 nM.

As to `CCCCc1nc2c(Nc3ccc(-n4cnc(C)n4)c(F)c3)cccc2n1C` [Compound 24], the concentration for half-maximal inhibition (IC50) amounted to 505 nM in the experiment on Aβ42 (setting [1]), 380 nM in the experiment on Aβ42 (setting [2]), 18000 nM with Aβtotal (setting [1]) and 17800 nM in the experiment on Aβtotal (setting [2]).

On to `COc1cccc(-c2nc3c(Nc4ccc(-n5cnc(C)n5)cc4)cccc3n2C)c1` [Compound 50], for which the half-maximal inhibitory concentration (IC50) was 101 nM in the experiment with Aβ42 (setting [1]), 81 nM with Aβ42 (setting [2]), over 10000 nM in the experiment with Aβtotal (setting [1]) and over 10000 nM with Aβtotal (setting [2]).

Turning to `COc1cc(Nc2cccc3c2nc(CC(C)C)n3C)ccc1-n1cnc(C)c1` [Compound 25], the IC50 in the experiment on Aβ42 (setting [1]) was 19 nM; in the experiment on Aβ42 (setting [2]) it was 19 nM; in the experiment on Aβtotal (setting [1]), over 3000 nM; in the experiment with Aβtotal (setting [2]), over 3000 nM.

`Cc1ncnn1-c1ccc(Nc2nccc3c2nc(-c2ccc(F)cc2)n3C(C)C)cc1F` [Compound 13]: the half-maximal inhibitory concentration (IC50) is 603 nM in the experiment with Aβ42 (setting [3]), 603 nM with Aβ42 (setting [4]), over 10000 nM with Aβtotal (setting [3]) and over 10000 nM in the experiment on Aβtotal (setting [4]).

Regarding `COc1cc(Nc2cccc3oc(CC(C)C)nc23)ccc1-n1cnc(C)n1` [Compound 28], the half-inhibitory concentration (IC50) with Aβ42 (setting [1]) is 1350 nM; with Aβ42 (setting [2]), 1350 nM; in the experiment with Aβtotal (setting [1]), over 3000 nM; in the experiment on Aβtotal (setting [2]), over 3000 nM.

Consider `COc1cc(Nc2cccc3c2nc(CC2CCN(C)CC2)n3C)ccc1-n1cnc(C)c1` [Compound 11], for which the 50% inhibitory concentration (IC50) in the experiment with Aβ42 (setting [3]) stood at 1590 nM; in the experiment with Aβ42 (setting [4]), 1260 nM; in the experiment with Aβtotal (setting [3]), 12000 nM; in the experiment with Aβtotal (setting [4]) it was 16600 nM.

For the compound `COc1cc(Nc2cccc3c2nc(C)n3C(C)C)ccc1-n1cnc(C)n1` [Compound 21], the half-inhibitory concentration (IC50) with Aβ42 (setting [1]) is 905 nM; in the experiment on Aβ42 (setting [2]) it was 891 nM; in the experiment on Aβtotal (setting [1]) it was over 33000 nM; in the experiment on Aβtotal (setting [2]), 45700 nM.

`COc1cc(Nc2cccc3c2nc(CC2CCN(C(C)=O)CC2)n3C)ccc1-n1cnc(C)c1` [Compound 10]: the IC50 was 751 nM with Aβ42 (setting [3]), 575 nM with Aβ42 (setting [4]), over 30000 nM with Aβtotal (setting [3]) and 29500 nM in the experiment with Aβtotal (setting [4]).

`CCn1c(-c2cc(F)ccc2F)nc2c(Nc3ccc(-n4cnc(C)n4)c(OC)c3)cc(F)cc21` [Compound 127]: the IC50 with Aβ42 (setting [2]) is 56 nM; with Aβtotal (setting [2]), over 3000 nM.

`C=C(C)c1cc(Nc2ccc(-n3cnc(C)n3)c(OC)c2)c2nc(-c3ccc(F)cc3)n(C)c2n1` [Compound 109]: the IC50 was 32 nM with Aβ42 (setting [4]) and over 3000 nM with Aβtotal (setting [4]).

In the case of `COc1ccccc1-c1nc2c(Nc3ccc(-n4cnc(C)c4)c(OC)c3)cccc2o1` [Compound 48], the half-maximal inhibitory concentration (IC50) with Aβ42 (setting [1]) was 427 nM; in the experiment with Aβ42 (setting [2]), 398 nM; in the experiment on Aβtotal (setting [1]), over 10000 nM; in the experiment with Aβtotal (setting [2]), over 10000 nM.

In the case of `COc1cc(Nc2cccc3c2nc(N2CCCCC2)n3C)ccc1-n1cnc(C)c1` [Compound 39], the half-inhibitory concentration (IC50) in the experiment with Aβ42 (setting [1]) was 69 nM; in the experiment on Aβ42 (setting [2]), 87 nM; in the experiment on Aβtotal (setting [1]), over 3000 nM; in the experiment with Aβtotal (setting [2]), over 5000 nM.

Consider `COc1cc(Nc2cccc3c2nc(-c2ccccc2C)n3Cc2ccccc2)ccc1-n1cnc(C)c1` [Compound 46], for which the IC50 with Aβ42 (setting [3]) was 10 nM; with Aβ42 (setting [4]), 10 nM; in the experiment with Aβtotal (setting [3]), over 1000 nM; in the experiment on Aβtotal (setting [4]), over 3000 nM.

For `COc1cc(Nc2nc(Cl)cc3c2nc(-c2ccc(F)cc2)n3C)ccc1-n1cnc(C)n1` [Compound 156], the IC50 in the experiment with Aβ42 (setting [2]) was 58 nM; in the experiment on Aβtotal (setting [2]), over 3000 nM.

As to `COc1cc(Nc2cccc3c2nc(-c2ccc(F)cc2)n3C)ccc1-n1cnc(C#N)c1` [Compound 72], the concentration for half-maximal inhibition (IC50) in the experiment with Aβ42 (setting [1]) was 720 nM; in the experiment on Aβ42 (setting [2]) it was 724 nM; in the experiment with Aβtotal (setting [1]) it was over 3000 nM; in the experiment with Aβtotal (setting [2]), over 3000 nM.
